Here are results for two compounds from US20070275977A1, “N-OXIDES OF PYRIDYLMETHYL -PIPERAZINE AND -PIPERIDINE DERIVATIVES” (priority 2006, published 2007).

Molecules are shown by their SMILES.

The target in one data set is Dopamine-D3 (Homo sapiens, UniProt P35462). Description: In vitro receptor affinity, Dopamine-D3. The class given is binding. Particulars: radioligand [3H]-spiperone, read-out: K1 (in vitro receptor affinity). As to the method:
(§1) ln vitro affinity for neurotransmitter receptors: The binding data collected below were either obtained by CE REP (128, rue Danton, 92500 Rueil-Malmaison, France) or at Solvay Pharmaceuticals B.V. (C. J. van Houtenlaan 36, 1381 CP Weesp, The Netherlands), using well documented standard procedures. The affinities for dopamine-D2 and 5-HT1A receptors for instance, were measured as described by Creese (1997) and Gozlan (1983) respectively.

The target in a further data set is μ-opiate (Rattus norvegicus, UniProt P33535). Description: In vitro receptor affinity, μ-opiate. It counts as binding. Conditions: radioligand [3H]-DAMGO, read-out: K1 (in vitro receptor affinity). Here is the method: as §1
For another data set, the target named is Dopamine-D2 (Homo sapiens, UniProt P14416). As to the kind of experiment: In vitro receptor affinity, Dopamine-D2. The class given is binding. Particulars: radioligand [3H]-spiperone, read-out: K1 (in vitro receptor affinity). Here is the method: as §1
The nature of data set [1]: Pharmacological profile in vivo (overall statement). Conditions: in vivo. Here is the method:
(§2) Lower lip retraction, an in vivo animal model for serotonin 5-HT1A receptor agonistic activity, was measured according to the method described by Berendsen (1989); Apomorphine-induced climbing behaviour in mice, an in vivo animal model for dopamine-D2 receptor antagonistic activity, was determined according to the method described by Costall (1978).

The test system of data set [2] is neurotransmitter receptors. Description: Pharmacological profile in vitro (overall statement). As to the method: as §1
In vitro (ant)agonistic activity at human D2 receptors and 5-HT1A receptors was measured according to the methods described by Solomon (1974) and Weiss (1985) respectively, on the formation of adenylate cyclase in CHO cell-lines expressing these cloned receptors.

A further data set deals with Lower lip retraction. Description: Lower lip retraction. It counts as in vivo. Conditions: po; read-out: Lower Lip Retraction: ED50. As to the method:
For oral (p.o.) administration: to the desired quantity (0.5-5 mg) of the solid test compound in a glass tube, some glass beads were added and the solid was milled by vortexing for 2 minutes. After addition of 1 ml of a solution of 1% methylcellulose in water and 2% (v/v) of Poloxamer 188 (Lutrol F68), the compound was suspended by vortexing for 10 minutes. The pH was adjusted to 7. Remaining particles in the suspension were further suspended by using an ultrasonic bath.
as §2

Data set [3] is described as follows: Volume of distribution measured in mice. Particulars: for VD in liters per kilograms: measured in mice; for Vd: plasma, calculated for an average person weighing 70 kg from mouse VD. It counts as in vivo. As to the method: The volume of distribution (VD), also known as the ‘apparent volume of distribution’, is a pharmacological term used to quantify the distribution of a drug throughout the body after oral or parenteral dosing. It is defined as the volume in which the amount of drug would need to be uniformly distributed in to produce the observed concentration (Widmark, 1919).
The volume of distribution of SLV313 and its pyridine N-oxide was measured in mice, using the standard procedure well known in the art:
The volume of distribution is not a physiological volume, but rather the ratio between the total amount of drug in the body and its concentration in plasma. It is generally accepted that the volume of distribution is more or less the same across species, making it a parameter that, when measured in laboratory animals, has a high predictive value towards man.

A short description of data set [4]: Plasma concentrations in mice after i.v. or p.o. administration, blood analyzed by LC-MS. Conditions: i.v. or p.o. The class given is in vivo. As to the method: The LC-MS system consists of 2 Perkin elmer series 200 micro pumps. The pumps were connected to each other by a 50 pI tee mixer, and connected to a Gilson 215 auto sampler. The method was as follows:
The auto sampler was connected to a Waters Atlantis C18 30*4.6 mm column with 3 μm particles. The column was thermo stated in a Perkin Elmer series 200 column oven at 40° C. The column was connected to a Perkin Elmer series 200 UV meter with a 2.7 μl flowcel. The wavelength was set to 254 nm. The UV meter was connected to a Sciex API 150EX mass spectrometer. The mass spectrometer had the following parameters: Scanrange:150-900 a.m.u., polarity: positive; scan mode: profile; resolution Q1: UNIT; step size: 0.10 a.m.u.; time per scan: 0.500 sec; NEB: 10; CUR: 10; IS: 5200; TEM: 325; DF: 30; FP: 225 and EP: 10. The light scattering detector was connected to the Sciex API 150. The light scattering detector was a Sedere Sedex 55 operating at 50° C. and 3 bar N2. The complete system was controlled by a G3 powermac.
For oral (p.o.) administration: to the desired quantity (0.5-5 mg) of the solid test compound in a glass tube, some glass beads were added and the solid was milled by vortexing for 2 minutes. After addition of 1 ml of a solution of 1% methylcellulose in water and 2% (v/v) of Poloxamer 188 (Lutrol F68), the compound was suspended by vortexing for 10 minutes. The pH was adjusted to 7. […]

Data set [5] can be described thus: Metabolism studies in humans. The class given is in vivo. Conditions: in man (also not in any animal species used in toxicology studies). The source says:
(§3) Psychotropic pyridylmethyl -piperazine and -piperidine derivatives are disclosed in EP 0 908 458. […] By now it is very well known that N-oxides are metabolites of many tertiary amines, and in most cases are also intermediates between tertiary amines and their N-dealkylated analogs. Most, but not all, tertiary amine drugs give rise to N-oxides. For instance, this is the case with morphine, imipramine, promazine, cinnarizine and nicotine, to name just a few. How much N-oxidation takes place varies from trace amounts to a near quantitative conversion. […] The most famous example of these is chlordiazepoxide (Librium®), one of the most frequently used drugs in psychiatric and general medicine. […] Some N-oxides undergo nearly quantitative reductive conversion to the corresponding tertiary amines and in other cases the conversion is a mere trace reaction or even completely absent (Bickel, 1969). Thus, the formation of N-oxides and their corresponding tertiary amines is unpredictable. […] When they are, the reaction can be a mere trace or nearly quantitative.

The nature of data set [6]: Toxicological studies, plasma of dogs. It counts as in vivo. Conditions: dogs dosed with SLV313.
Text: as §3

Data set [7] can be described thus: Toxicological studies, plasma of rats. It counts as in vivo. Conditions: rats dosed with SLV313.
Text: as §3

Chain of μ-opiate (P33535 whole entry): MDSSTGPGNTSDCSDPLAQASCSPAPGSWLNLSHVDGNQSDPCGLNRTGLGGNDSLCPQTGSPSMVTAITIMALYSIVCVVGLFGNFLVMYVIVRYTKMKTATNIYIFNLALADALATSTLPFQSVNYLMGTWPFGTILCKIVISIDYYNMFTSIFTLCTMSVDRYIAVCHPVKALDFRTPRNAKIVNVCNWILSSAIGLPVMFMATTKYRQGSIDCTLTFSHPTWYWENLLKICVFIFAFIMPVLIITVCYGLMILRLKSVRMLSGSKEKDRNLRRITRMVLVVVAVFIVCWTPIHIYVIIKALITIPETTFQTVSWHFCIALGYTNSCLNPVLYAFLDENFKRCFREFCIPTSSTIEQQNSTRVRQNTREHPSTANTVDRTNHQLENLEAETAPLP
Chain of Dopamine-D2 (P14416 whole entry): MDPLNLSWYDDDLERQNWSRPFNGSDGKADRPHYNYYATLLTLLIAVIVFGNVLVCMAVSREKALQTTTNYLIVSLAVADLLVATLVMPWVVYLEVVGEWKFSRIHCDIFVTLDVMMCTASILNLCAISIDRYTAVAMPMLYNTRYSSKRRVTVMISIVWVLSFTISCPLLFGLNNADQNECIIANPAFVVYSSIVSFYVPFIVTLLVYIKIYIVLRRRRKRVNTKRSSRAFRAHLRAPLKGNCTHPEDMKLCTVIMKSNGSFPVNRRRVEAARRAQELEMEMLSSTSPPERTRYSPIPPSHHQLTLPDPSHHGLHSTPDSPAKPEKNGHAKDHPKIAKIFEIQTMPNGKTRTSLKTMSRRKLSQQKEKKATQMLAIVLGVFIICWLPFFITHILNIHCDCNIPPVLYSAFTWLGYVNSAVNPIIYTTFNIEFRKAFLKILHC
Chain of Dopamine-D3 (P35462 whole entry): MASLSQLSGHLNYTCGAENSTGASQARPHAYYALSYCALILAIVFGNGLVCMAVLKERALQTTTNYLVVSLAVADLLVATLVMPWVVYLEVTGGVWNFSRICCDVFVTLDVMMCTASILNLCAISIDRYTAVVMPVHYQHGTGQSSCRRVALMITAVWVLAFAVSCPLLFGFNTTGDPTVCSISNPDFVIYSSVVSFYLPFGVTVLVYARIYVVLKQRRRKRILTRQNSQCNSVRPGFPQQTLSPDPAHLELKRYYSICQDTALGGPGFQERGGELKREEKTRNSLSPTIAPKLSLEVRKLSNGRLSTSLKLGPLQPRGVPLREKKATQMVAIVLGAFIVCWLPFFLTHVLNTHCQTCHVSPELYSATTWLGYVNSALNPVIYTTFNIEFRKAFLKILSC

By melting point is commonly meant the temperature of the solid-liquid transition. For orientation: ED50 means the dose at which the effect has come halfway, by size or by number of responders. Broadly, the Vd is a proportionality between amount in the body and measured concentration, not a real space. `[O-][n+]1cc(CN2CCN(c3cccc4c3OCCO4)CC2)cc(-c2ccc(F)cc2)c1` [pyridine N-oxide, 1-(2,3-dihydro-1,4-benzodioxin-5-yl)-4-[[5-(4-fluorophenyl)-1-oxido-3-pyridinyl]methyl]-piperazine] came in with a melting point of 171 °C. Besides, the Ki at Dopamine-D3 came out at 8 nM. In addition, the Ki on μ-opiate amounted to 3200 nM. Also, the Ki on Dopamine-D2 came out at 5 nM. Also, in data set [1], the “pharmacological profile/potency in vivo relative to SLV313” value is reported as “identical”. Also, the “pharmacological profile/activity in vitro relative to parent SLV313” value in data set [2] is “identical”. Besides, the ED50 in the data set on Lower lip retraction came out at 3 mg/kg. Further, in [3], the “VD in liters per kilograms” value turned out to be 1 liters per kilograms and the Vd is 70 L.

As for `Fc1ccc(-c2cncc(CN3CCN(c4cccc5c4OCCO5)CC3)c2)cc1` [SLV313, 3-[[4-(2,3-dihydro-1,4-benzodioxin-5-yl)-1-piperazinyl]methyl]-5-(4-fluorophenyl)pyridine, reference compound], the “metabolism to piperazine-N-oxide” value in data set [4] is “not metabolized to its piperazine-N-oxide”. In data set [5], the “piperazine-N-oxide as a metabolite” value is “has not been detected as a metabolite”. Further, the Ki at μ-opiate was determined as 8000 nM. For the same compound, the pyridine-N-oxide in plasma result in [6] and in data set [7] was “could not be demonstrated” each time. Further, the ED50 in the data set with Lower lip retraction was 2.3 mg/kg. The “VD in liters per kilograms” value in [3] is given as 5 liters per kilograms. Besides, in [3], the Vd is 350 L.
